This is an account of results in patent US20100197727A1, “Quinoline Derivatives as Antibacterial Agents” (priority 2005, published 2010).

One assay deals with S. aureus. The assay can be described thus: Time kill assay. It counts as cell-based, Staphylococcus aureus. The following applies: for bactericidal activity in time kill assay: observed at 1 and 10 times MIC90. The text has this:
(§1) Bactericidal or bacteriostatic activity of the compounds may be determined in a time kill assay using the broth microdilution method*. In a time kill assay on Staphylococcus aureus and methicillin resistant S. aureus (MRSA), the starting inoculum of S. aurues and MRSA is 10^6 CFU/ml in Muller Hinton broth. The antibacterial compounds are used at the concentration of 0.1 to 10 times the MIC (i.e. IC90 as determined in microtitre plate assay). Wells receiving no antibacterial agent constitute the culture growth control. The plates containing the microorganism and the test compounds are incubated at 37° C. After 0, 4, 24, and 48 hrs of incubation samples are removed for determination of viable counts by serial dilution (10^−1 to 10^−6) in sterile PBS and plating (200 μl) on Mueller Hinton agar. The plates are incubated at 37° C. for 24 hrs and the number of colonies are determined Killing curves can be constructed by plotting the log10 CFU per ml versus time. A bactericidal effect is commonly defined as 3-log10 decrease in number of CFU per ml as compared to untreated inoculum. The potential carryover effect of the drugs is removed by serial dilutions and counting the colonies at highest dilution used for plating. No carryover effect is observed at the dilution of 10^−2 used for plating. […] Antimicrob. Agents Chemother. 40, 839-845 (1996).
A time kill assay was performed with compound 102 and the control drug ciprofloxacin.

A further assay concerns MRSA. Put plainly: Time kill assay. The assay is classed as cell-based, methicillin resistant S. aureus.
From the text: as §1, with “(1996). […]” for “(1996).”

Assay [1] concerns Bacillus subtilis (ATCC43639). Put plainly: Microtitre plate assay, IC90 determination. It counts as cell-based. The following applies: 90% inhibitory concentration for bacterial growth. The procedure:
(§2) The bacteria used in this study were grown overnight in flasks containing 100 ml Mueller-Hinton Broth (Becton Dickinson—cat. no. 275730) in sterile de-ionized water, with shaking, at 37° C. Stocks (0.5 ml/tube) were stored at −70° C. until use. Bacteria titrations were performed in microtiter plates and colony forming units (CFUs) were determined In general, an inoculum level of approximately 100 CFUs was used for susceptibility testing.
(§3) Flat-bottom, sterile 96-well plastic microtiter plates were filled with 180 μl of sterile deionized water, supplemented with 0.25% BSA. Subsequently, stock solutions (7.8× final test concentration) of compounds were added in 45 μl volumes in column 2. Serial five-fold dilutions (45 μl in 180 μl ) were made directly in the microtiter plates from column 2 to reach column 11. Untreated control samples with (column 1) and without (column 12) inoculum were included in each microtiter plate. Depending on the bacteria type, approximately 10 to 60 CFU per well of bacteria inoculum (100 TCID50), in a volume of 100 μl in 2.8× Mueller-Hinton broth medium, was added to the rows A to H, except column 12. The same volume of broth medium without inoculum was added to column 12 in row A to H. The cultures were incubated at 37° C. for 24 hours under a normal atmosphere (incubator with open air valve and continuous ventilation). At the end of incubation, one day after inoculation, the bacterial growth was quantitated fluorometrically. Therefore resazurin (0.6 mg/ml) was added in a volume of 20 μl to all wells 3 hours after inoculation, and the plates were re-incubated overnight. A change in colour from blue to pink indicated the growth of bacteria. The fluorescence was read in a computer-controlled fluorometer (Cytofluor Biosearch) at an excitation wavelength of 530 nm and an emission wavelength of 590 nm. The % growth inhibition achieved by the compounds was calculated according to standard methods. The IC90 (expressed in μg/ml) was defined as the 90% inhibitory concentration for bacterial growth.

Assay [2] concerns Enterococcus faecalis (ATCC14506). The assay can be described thus: Microtitre plate assay, IC90 determination. The assay is classed as cell-based. The following applies: 90% inhibitory concentration for bacterial growth. The procedure:
as §2, §3

Assay [3] has as its system Enterococcus faecalis (ATCC29212). Put plainly: Microtitre plate assay, IC90 determination. It counts as cell-based. Conditions: 90% inhibitory concentration for bacterial growth. The procedure:
as §2, §3

For assay [4], the system named is Escherichia coli (ATCC25922). The assay can be described thus: Microtitre plate assay, IC90 determination. It counts as cell-based. The following applies: 90% inhibitory concentration for bacterial growth. The protocol: as §2, §3
In assay [5] the test system is Listeria monocytogenes (ATCC49594). The assay can be described thus: Microtitre plate assay, IC90 determination. The assay is classed as cell-based. Conditions: 90% inhibitory concentration for bacterial growth. The protocol:
as §2, §3

Assay [6] relates to Pseudomonas aeruginosa (ATCC27853). Put plainly: Microtitre plate assay, IC90 determination. It counts as cell-based. The following applies: 90% inhibitory concentration for bacterial growth. The protocol: as §2, §3
Assay [7] deals with Staphylococcus aureus (ATCC25923). The assay can be described thus: Microtitre plate assay, IC90 determination. It counts as cell-based. Conditions: 90% inhibitory concentration for bacterial growth. The protocol: as §2, §3
Assay [8] deals with Staphylococcus aureus (ATCC29213). Put plainly: Microtitre plate assay, IC90 determination. The following applies: 90% inhibitory concentration for bacterial growth. It counts as cell-based. The protocol:
as §2, §3

Assay [9] deals with Staphylococcus aureus (ATCC43300). Put plainly: Microtitre plate assay, IC90 determination. The following applies: 90% inhibitory concentration for bacterial growth. It counts as cell-based. The procedure:
as §2, §3

Assay [10] has as its system Streptococcus mutans (ATCC33402). Put plainly: Microtitre plate assay, IC90 determination. The assay is classed as cell-based. The following applies: 90% inhibitory concentration for bacterial growth. The protocol:
as §2, §3

The subject of assay [11] is Streptococcus pneumoniae (ATCC6305). Put plainly: Microtitre plate assay, IC90 determination. It counts as cell-based. Conditions: 90% inhibitory concentration for bacterial growth. The procedure:
as §2, §3

Assay [12] relates to Streptococcus pyogens (ATCC8668). The assay can be described thus: Microtitre plate assay, IC90 determination. The assay is classed as cell-based. Conditions: 90% inhibitory concentration for bacterial growth. The procedure: as §2, §3
In assay [13] the test system is methicilline resistant Staphylococcus aureus (MRSA) (a clinical isolate from the University of Antwerp). Put plainly: Microtitre plate assay, IC90 determination. The assay is classed as cell-based. Conditions: 90% inhibitory concentration for bacterial growth. The procedure:
as §2, §3

Assay [14] deals with Escherichia coli (ATCC35218). The assay can be described thus: Microtitre plate assay, IC90 determination. The assay is classed as cell-based. The following applies: 90% inhibitory concentration for bacterial growth. The protocol: as §2, §3

In the case of `O=C(O)c1cn(C2CC2)c2cc(N3CCNCC3)c(F)cc2c1=O` [ciprofloxacin, reference compound], the entries for the “bactericidal activity in time kill assay” value in the assay on S. aureus and with MRSA were “bactericidal activity” and “no bactericidal effect”, respectively.
In the case of `COc1nc2ccc(Br)cc2cc1C(c1ccccc1)C(O)(CC[N+](C)(C)C)c1cccc2ccccc12.[I-]` (single isomer, unassigned) [Compound 102], in [1], the “IC90 BSU 43639” value is 2.8 µg/mL. The “IC90 EFA 14506” value in [2] worked out at 2.8 µg/mL. The “IC90 EFA 29212” value in [3] worked out at 2.8 µg/mL. For the same molecule, the “IC90 ECO 25922” value in assay [4] was 13.9 µg/mL. Moreover, the “IC90 LMO 49594” value in [5] was found to be 2.2 µg/mL. In [6], the “IC90 PAE 27853” value is 13.9 µg/mL. Besides, the “IC90 STA 25923” value in assay [7] was 2.2 µg/mL. Besides, the “IC90 STA 29213” value in [8] was 2.8 µg/mL. Moreover, in [9], the “IC90 STA 43300” value turned out to be 3.5 µg/mL. The “IC90 SMU 33402” value in assay [10] came to 2.5 µg/mL. Further, the “IC90 SPN 6305” value in assay [11] is 3.1 µg/mL. The “IC90 SPY 8668” value in assay [12] worked out at 2.5 µg/mL. In assay [13], the “IC90 STA RMETH” value turned out to be 2.8 µg/mL. In the assay with S. aureus (MIC i.e. IC90 as determined in microtitre plate assay), the “MIC (1× MIC used in time kill assay)” value was 2.3 µg/mL. Also, the “growth in time kill assay” value in the assay on S. aureus (at 0.1 times the MIC) is reported as “followed the control in growth”. Also, the “bactericidal activity in time kill assay” value in the assay on S. aureus is listed as “bactericidal activity”.
For `COc1nc2ccc(Br)cc2cc1C(c1ccccc1)C(O)(CC[N+](C)(C)C)c1cccc2ccccc12.[I-]` (single isomer, unassigned) [Compound 103], in assay [1], the “IC90 BSU 43639” value turned out to be 2.8 µg/mL. Also, the “IC90 EFA 14506” value in assay [2] stood at 2.8 µg/mL. For the same molecule, in assay [3], the “IC90 EFA 29212” value was 2.8 µg/mL. For the same molecule, the “IC90 ECO 25922” value in assay [4] worked out at 11.1 µg/mL. Further, the “IC90 ECO 35218” value in [14] is 17.5 µg/mL. For the same molecule, the “IC90 LMO 49594” value in [5] was determined as 0.5 µg/mL. Moreover, the “IC90 PAE 27853” value in assay [6] was determined as 13.9 µg/mL. The “IC90 STA 25923” value in assay [7] stood at 2.2 µg/mL. Further, the “IC90 STA 29213” value in [8] was found to be 2.0 µg/mL. For the same molecule, in assay [9], the “IC90 STA 43300” value came to 2.8 µg/mL. Further, the “IC90 SMU 33402” value in [10] stood at 2.8 µg/mL. The “IC90 SPN 6305” value in assay [11] was determined as 3.5 µg/mL. In addition, the “IC90 SPY 8668” value in assay [12] worked out at 2.8 µg/mL. The “IC90 STA RMETH” value in [13] came out at 2.2 µg/mL.
